Results taken from US20110028566A1, “COMPOSITIONS AND PRODUCTS CONTAINING CYCLOALIPHATIC DIOL ANTIMICROBIAL AGENTS AND METHODS OF USING THE COMPOSITIONS AND PRODUCTS” (EASTMAN CHEMICAL COMPANY, priority 2009, published 2011).

Experiments:
Burkholderia cepacia = assay: Microbial challenge testing in BPW; assay type: cell-based; conditions: for Grade code, B. cepacia, 3 Days / Grade code, B. cepacia, 14 Days / Grade code, B. cepacia, 30 Days: BPW, w/v % in label, average of replicates
Experimental: (§1) The microorganisms used in challenge tests are given in Table 3, designated as either ATCC (American Type Culture Collection) or wild type. These wild type organisms were problematic organisms previously isolated from chemical products. In the description for each organism, the bacteria are indicated as either GN (Gram negative) or GP (Gram positive).
(§2) All of the microorganisms were grown in Tryptose Soy Broth (TSB), DIFCO™ available from Becton, Dickinson and Company, containing 1% dextrose. Aspergillus niger and Candida albicans were incubated at 22° C.±2° C. for at least 96 hours. All bacteria were incubated at 35° C.±2° C. in a humidified incubator for at least 96 hours.
(§3) The following procedure was followed to determine the amount of each challenge material (inoculum broth) required to produce a 10^8 cfu/mL challenge, which is equivalent to a final test-sample microbial concentration of 10^5 to 10^6 cfu (colony-forming units)/mL.
(§4) Using a sterile serological pipette, 1 mL of the growth from each TSB culture was transferred into tubes containing 9 mL phosphate buffer (pH 7.2) and mixed thoroughly. This process was repeated to make serial 1:10 dilutions. Then 0.1 mL of each sample and dilution was inoculated onto agar plates to produce the equivalent of a further 1:10 dilution. C. albicans and A. niger were inoculated onto SDA and bacteria were inoculated onto Plate Count Agar (PCA), DIFCO™ available from Becton, Dickinson and Company. The 0.1 mL aliquots were evenly distributed on the plates using the spread-plate technique. The spread-plate technique is performed by spreading the aliquot over the entire plate surface using a sterile spreading rod while rotating the plate with a rotary auto-plater. After the inoculum was absorbed completely, each plate was inverted and incubated (fungi at 22° C.±2° C. and bacteria at 35° C.±2° C.).
(§5) After incubation for at least 48 hours, colonies that had developed on the agar plates were counted and recorded with the corresponding dilution. If counting had to be delayed temporarily, plates were refrigerated, preferably no more than 24 hours, until they could be counted. The number of cfu/mL was determined by multiplying the count by the dilution factor for that particular plate.
(§6) Turbidity in Nepholemetric Turbidity Units (NTU) was measured for each serial dilution using the HF-Micro 100 Model Turbidimeter. For each microorganism, the plate counts were compared to the turbidity readings.
(§7) Control substrates (“broth alone”) were prepared for each microorganism separately in triplicate by adding 13.5 mL of BPW (pH 7.0) containing 1% (w/v) dextrose to each 20-mL glass tube; then adding 1.5 mL challenge material to produce a final concentration at time zero of 10^5 to 10^6 cfu/mL and a total volume of 15 mL.
(§8) Test sample substrates were prepared containing each test material (1,4-CHDM, etc) or combination of test materials at the concentrations shown in Tables 5 and 6. Sample substrates were prepared in triplicate, except those substrates containing PE or CG which were prepared in duplicate. Substrates were prepared by adding BPW containing 1% (w/v) dextrose to each 20-mL glass tube, then adding the test material in the amount appropriate to achieve the desired weight/volume percent (g/100 mL) and to obtain a total volume of BPW with dextrose and test material of 13.5 mL. Then 1.5 mL challenge material was added to produce a final concentration at time zero of 10^5 to 10^6 cfu/mL of the respective organism and a total test sample substrate volume of 15 mL.
(§9) After mixing, all challenged substrates were incubated at 35° C.±2° C. for 14 days and then at ambient room temperature.

[1] = tested on: Staphylococcus epidermidis; assay: Microbial challenge testing in BPW; assay type: cell-based; conditions: for Grade code, S. epidermidis, 3 Days / Grade code, S. epidermidis, 13 Days / Grade code, S. epidermidis, 30 Days: BPW, w/v % in label, average of replicates
Experimental: as §1, §2, §3, §4, §5, §6, §7, §8, §9

[2] = 3 days incubation, listed as 0.5% AB
[3] = 3 days incubation, listed as 1.25% AB
[4] = 3 days incubation, listed as 2.5% AB
[5] = 30 days incubation, listed as 0.5% AB
[6] = 30 days incubation, listed as 1.25% AB
[7] = 30 days incubation, listed as 2.5% AB

SMILES: OCC1CCC(CO)CC1 (stereo not drawn) [1,4-CHDM, 1,4-cyclohexanedimethanol]
- Grade code B. cepacia (Burkholderia cepacia; 0.5%, 3 days incubation): 4 (1001 to 10,000 colonies (thus 10,000 cfu/mL to 100,000 cfu/mL))
- Grade code B. cepacia (Burkholderia cepacia; 0.5%, 14 days incubation): 4 (1001 to 10,000 colonies (thus 10,000 cfu/mL to 100,000 cfu/mL))
- Grade code B. cepacia (Burkholderia cepacia; 0.5%, 30 days incubation): 4 (1001 to 10,000 colonies (thus 10,000 cfu/mL to 100,000 cfu/mL))
- Grade code B. cepacia (Burkholderia cepacia; 1.25%, 3 days incubation): 4 (1001 to 10,000 colonies (thus 10,000 cfu/mL to 100,000 cfu/mL))
- Grade code B. cepacia (Burkholderia cepacia; 1.25%, 14 days incubation): 2 (52 to 100 colonies counted (thus 520 to 1000 cfu/mL))
- Grade code B. cepacia (Burkholderia cepacia; 1.25%, 30 days incubation): 4 (1001 to 10,000 colonies (thus 10,000 cfu/mL to 100,000 cfu/mL))
- Grade code B. cepacia (Burkholderia cepacia; 2.5%, 3 days incubation): 0 (No growth detected or <1 colony (thus <10 cfu/mL))
- Grade code B. cepacia (Burkholderia cepacia; 2.5%, 14 days incubation): 0 (No growth detected or <1 colony (thus <10 cfu/mL))
- Grade code B. cepacia (Burkholderia cepacia; 2.5%, 30 days incubation): 0 (No growth detected or <1 colony (thus <10 cfu/mL))
- Grade code, B. cepacia, 3 Days (Burkholderia cepacia; [2]): 4 (1001 to 10,000 colonies (thus 10,000 cfu/mL to 100,000 cfu/mL))
- Grade code, B. cepacia, 3 Days (Burkholderia cepacia; [3]): 4 (1001 to 10,000 colonies (thus 10,000 cfu/mL to 100,000 cfu/mL))
- Grade code, B. cepacia, 3 Days (Burkholderia cepacia; [4]): 0 (No growth detected or <1 colony (thus <10 cfu/mL))
- Grade code, B. cepacia, 14 Days (Burkholderia cepacia; 14 days incubation, listed as 0.5% AB): 4 (1001 to 10,000 colonies (thus 10,000 cfu/mL to 100,000 cfu/mL))
- Grade code, B. cepacia, 14 Days (Burkholderia cepacia; 14 days incubation, listed as 1.25% AB): 2 (52 to 100 colonies counted (thus 520 to 1000 cfu/mL))
- Grade code, B. cepacia, 14 Days (Burkholderia cepacia; 14 days incubation, listed as 2.5% AB): 0 (No growth detected or <1 colony (thus <10 cfu/mL))
- Grade code, B. cepacia, 30 Days (Burkholderia cepacia; [5]): 4 (1001 to 10,000 colonies (thus 10,000 cfu/mL to 100,000 cfu/mL))
- Grade code, B. cepacia, 30 Days (Burkholderia cepacia; [6]): 4 (1001 to 10,000 colonies (thus 10,000 cfu/mL to 100,000 cfu/mL))
- Grade code, B. cepacia, 30 Days (Burkholderia cepacia; [7]): 0 (No growth detected or <1 colony (thus <10 cfu/mL))
- Grade code S. epidermidis ([1]; 0.5%, 3 days incubation): 4 (1001 to 10,000 colonies (thus 10,000 cfu/mL to 100,000 cfu/mL))
- Grade code S. epidermidis ([1]; 0.5%, 13 days incubation): 4 (1001 to 10,000 colonies (thus 10,000 cfu/mL to 100,000 cfu/mL))
- Grade code S. epidermidis ([1]; 0.5%, 30 days incubation): 4 (1001 to 10,000 colonies (thus 10,000 cfu/mL to 100,000 cfu/mL))
- Grade code S. epidermidis ([1]; 1.25%, 3 days incubation): 2 (52 to 100 colonies counted (thus 520 to 1000 cfu/mL))
- Grade code S. epidermidis ([1]; 1.25%, 13 days incubation): 0.7
- Grade code S. epidermidis ([1]; 1.25%, 30 days incubation): 2 (52 to 100 colonies counted (thus 520 to 1000 cfu/mL))
- Grade code S. epidermidis ([1]; 2.5%, 3 days incubation): 0.7
- Grade code S. epidermidis ([1]; 2.5%, 13 days incubation): 0 (No growth detected or <1 colony (thus <10 cfu/mL))
- Grade code S. epidermidis ([1]; 2.5%, 30 days incubation): 0 (No growth detected or <1 colony (thus <10 cfu/mL))
- Grade code, S. epidermidis, 3 Days [1, 2]: 4 (1001 to 10,000 colonies (thus 10,000 cfu/mL to 100,000 cfu/mL))
- Grade code, S. epidermidis, 3 Days [1, 3]: 2 (52 to 100 colonies counted (thus 520 to 1000 cfu/mL))
- Grade code, S. epidermidis, 3 Days [1, 4]: 0.7
- Grade code, S. epidermidis, 13 Days ([1]; 13 days incubation, listed as 0.5% AB): 4 (1001 to 10,000 colonies (thus 10,000 cfu/mL to 100,000 cfu/mL))
- Grade code, S. epidermidis, 13 Days ([1]; 13 days incubation, listed as 1.25% AB): 0.7
- Grade code, S. epidermidis, 13 Days ([1]; 13 days incubation, listed as 2.5% AB): 0 (No growth detected or <1 colony (thus <10 cfu/mL))
- Grade code, S. epidermidis, 30 Days [1, 5]: 4 (1001 to 10,000 colonies (thus 10,000 cfu/mL to 100,000 cfu/mL))
- Grade code, S. epidermidis, 30 Days [1, 6]: 2 (52 to 100 colonies counted (thus 520 to 1000 cfu/mL))
- Grade code, S. epidermidis, 30 Days [1, 7]: 0 (No growth detected or <1 colony (thus <10 cfu/mL))
